For 1 compound, saturation concentration results are on record in US7004171B2, “System for transvaginal drug delivery” (Hi-Gienic Intra Vaginal Technologies Ltd., priority 2002, dated 2006).

The conditions of the series: Sorensen buffer pH 7.4, 37° C., 24 hours agitation, excess drug. An excerpt: The release medium used for these experiments was the Sorensen-Walbum buffer, chosen here due to its lack of absorbance in the UV range, thus causing less interference with the analytical drug detection process. The buffer consisted of glycine (0.1 M) and NaCl (0.1 M), adjusted to pH 7.4 with NaOH (0.1M).

`CC(C)Cc1ccc(C(C)C(=O)O)cc1` (stereo not shown) [Ibuprofen] yielded a saturation concentration of 100 µg/mL.
